Several values for one entry are separate records, joined by “and”; a condition that tells them apart may be missing. Identical values can stand only once. Like-named read-outs stand apart in the source and are kept apart here.
Legend:
[1] = system: European corn borer (Ostrinia nubilalis); assay: Diet surface test on European corn borer larvae (2nd instar); format: in vivo; details: for mortality at 6.25 ppm / mortality at 12.5 ppm / mortality at 25 ppm / mortality at 50 ppm: Ostrinia nubilalis, read-out: % Mortality
Protocol: Concentrations of 6.25, 12.5, 25, or 50 ppm AT blocker were prepared in 95% ethyl alcohol (EtOH). 95% EtOH alone served as control. European corn borer (ECB) diet prepared from the powdered diet supplied by French Agricultural Research, Inc. Diet (1-2 ml) was poured into small cups and allowed to cool to room temperature. Test solution (100 ul) was placed onto the diet surface and allowed to evaporate the solvent. Each concentration of chemical had 2 sets of 10 cups each. One late 2nd instar larva was placed in each cup and covered with lid having perforations for aeration. Cups were placed in an incubator for 7 days at 25±1° C. and 70±5% RH. After seven days, the weight of each larva was taken and any mortality was recorded. Then, the surviving larvae were transferred to fresh diet cups holding sufficient diet (5-6 ml) without chemicals and incubated at 25±1° C. and 70±5% RH until pupation. Weights of larvae were taken 14 days after transferring to fresh diet (21 days after start of treatment). Finally, the number of days until pupation was recorded.
Anion transporters caused larval death and a reduction in weight gain within 7 days exposure. The effect persisted for 2 weeks time on untreated diet, but total time to pupation was relatively unaffected.

[2] = system: Meloidogyne incognita eggs; assay: M. incognita egg hatching; format: in vivo
Protocol: Meloidogyne incognita (plant parasitic nematode) eggs were collected from tomato plant roots and were suspended in water. The solution was either diluted or concentrated to adjust the egg load to about 5000/ml. AT stock solutions prepared in DMSO and 300 ul of test solution was placed in a well, along with 20 ul of aqueous solution containing eggs. The number of eggs in 20 ul solution ranged from 115 to 143 (n=10). Each treatment (2, 5, 10, 20, or 40 ppm) was replicated 5 times. Microplates were sealed with Parafilm™ and incubated at room temperature. Similar tests conducted with 0.2% DMSO alone served as controls. Egg hatching was monitored at 24, 72, 120, and 168 hr after incubation. Both moving and non-moving nematodes were counted to arrive at the number of eggs hatched. Proportion of egg hatch was calculated as the number of juveniles divided by total number of eggs.
VSCC blockers effect on M. incognita egg hatching is shown in the following tables where % hatched is rounded to the nearest percentage point and where “% C*” is % hatch, normalized to control.

[3] = 6.25 ppm, 21 days after feeding
[4] = 12.5 ppm, 21 days after feeding
[5] = 50 ppm, 7 days after feeding, 10 larvae treated
[6] = 50 ppm, 21 days after feeding, 10 larvae treated

O=S(=O)(O)c1cc(N=C=S)ccc1/C=C/c1ccc(N=C=S)cc1S(=O)(=O)O [DIDS, trans-4,4′-diisothiocyanatostilbene-2,2′-disulfonic acid, reference compound]
Days for pupation ([1]; 6.25 ppm): 24.6 days and 25.0 days
% wt reduction to control ([1]; 6.25 ppm, 7 days after feeding): 12.76% and 9.12%
Mean wt of survived larvae, mg ([1]; 6.25 ppm, 7 days after feeding): 41.56 (10) mg and 44.84 (10) mg
No. dead ([1]; 6.25 ppm, 7 days after feeding, 10 larvae): 0
% wt reduction to control [1, 3]: 5.69% and 7.74%
Mean wt of survived larvae, mg [1, 3]: 156.66 (10) mg and 135.14 (10) mg
No. dead ([1]; 6.25 ppm, 21 days after feeding, 10 larvae): 0
Days for pupation ([1]; 12.5 ppm): 25.2 days and 25.8 days
% wt reduction to control ([1]; 12.5 ppm, 7 days after feeding): 39.67% and 36.72%
Mean wt of survived larvae, mg ([1]; 12.5 ppm, 7 days after feeding): 28.74 (10) mg and 31.22 (10) mg
No. dead ([1]; 12.5 ppm, 7 days after feeding, 10 larvae): 0
% wt reduction to control [1, 4]: 32.84% and 33.04%
Mean wt of survived larvae, mg [1, 4]: 111.56 (10) mg and 98.08 (10) mg
No. dead ([1]; 12.5 ppm, 21 days after feeding, 10 larvae): 0
Days for pupation ([1]; 25 ppm): 27.25 days and 27.0 days
% wt reduction to control ([1]; 25 ppm, 7 days after feeding): 66.06% and 65.00%
Mean wt of survived larvae, mg ([1]; 25 ppm, 7 days after feeding): 16.17 (8) mg and 17.26 (6) mg
No. dead ([1]; 25 ppm, 7 days after feeding, 10 larvae): 2 and 4
% wt reduction to control ([1]; 25 ppm, 21 days after feeding): 70.08% and 70.62%
Mean wt of survived larvae, mg ([1]; 25 ppm, 21 days after feeding): 49.70 (6) mg and 43.03 (6) mg
No. dead ([1]; 25 ppm, 21 days after feeding, 10 larvae): 4
Days for pupation ([1]; 50 ppm in (Hepes)): 24.6 days
Mean wt of survived larvae, mg ([1]; 50 ppm in (Hepes), 7 days after feeding): 43.33 mg
No. dead ([1]; 50 ppm in (Hepes), 7 days after feeding, 10 larvae): 0
Mean wt of survived larvae, mg ([1]; 50 ppm in (Hepes), 21 days after feeding): 137.36 mg
No. dead ([1]; 50 ppm in (Hepes), 21 days after feeding, 10 larvae): 0
% wt reduction to control ([1]; 50 ppm, 7 days after feeding): 87.93% and 92.70%
Mean wt of survived larvae ([1]; 50 ppm, 7 days after feeding): 43.33 mg
Mean wt of survived larvae, mg ([1]; 50 ppm, 7 days after feeding): 5.75 (4) mg and 3.60 (1) mg
No. dead ([1]; 50 ppm, 7 days after feeding, 10 larvae): 6 and 8
# surviving [1, 5]: 10
No. dead [1, 5]: 0
% wt reduction to control ([1]; 50 ppm, 21 days after feeding): 0%
Mean wt of survived larvae ([1]; 50 ppm, 21 days after feeding): 137.36 mg
Mean wt of survived larvae, mg ([1]; 50 ppm, 21 days after feeding): 0 mg
No. dead ([1]; 50 ppm, 21 days after feeding, 10 larvae): 10
# surviving [1, 6]: 10
No. dead [1, 6]: 0
mortality at 6.25 ppm ([1]; 168 h, 6.25 ppm, 7 days after feeding): 0%
mortality at 12.5 ppm ([1]; 168 h, 12.5 ppm, 7 days after feeding): 0%
mortality at 25 ppm ([1]; 168 h, 25 ppm, 7 days after feeding): 20%
mortality at 50 ppm ([1]; 168 h, 50 ppm in (Hepes), 7 days after feeding): 0%
mortality at 6.25 ppm ([1]; 504 h, 6.25 ppm, 21 days after feeding): 0%
mortality at 12.5 ppm ([1]; 504 h, 12.5 ppm, 21 days after feeding): 0%
mortality at 25 ppm ([1]; 504 h, 25 ppm, 21 days after feeding): 40%
mortality at 50 ppm ([1]; 504 h, 50 ppm in (Hepes), 21 days after feeding): 0%
Eggs Hatched % ([2]; 2 ppm, 24 hr): 10%
Eggs Hatched % C* (% hatch, normalized to control) ([2]; 2 ppm, 24 hr): 100%
Eggs Hatched No. ([2]; 2 ppm, 24 hr): 66
Eggs Hatched % ([2]; 2 ppm, 72 hr): 14%
Eggs Hatched % C* (% hatch, normalized to control) ([2]; 2 ppm, 72 hr): 87%
Eggs Hatched No. ([2]; 2 ppm, 72 hr): 95
Eggs Hatched % ([2]; 2 ppm, 120 hr): 19%
Eggs Hatched % C* (% hatch, normalized to control) ([2]; 2 ppm, 120 hr): 86%
Eggs Hatched No. ([2]; 2 ppm, 120 hr): 128
Eggs Hatched % ([2]; 2 ppm, 168 hr): 22%
Eggs Hatched % C* (% hatch, normalized to control) ([2]; 2 ppm, 168 hr): 79%
Eggs Hatched No. ([2]; 2 ppm, 168 hr): 162
Eggs Hatched % ([2]; 5 ppm, 24 hr): 9%
Eggs Hatched % C* (% hatch, normalized to control) ([2]; 5 ppm, 24 hr): 90%
Eggs Hatched No. ([2]; 5 ppm, 24 hr): 62
Eggs Hatched % ([2]; 5 ppm, 72 hr): 13%
Eggs Hatched % C* (% hatch, normalized to control) ([2]; 5 ppm, 72 hr): 81%
Eggs Hatched No. ([2]; 5 ppm, 72 hr): 91
Eggs Hatched % ([2]; 5 ppm, 120 hr): 17%
Eggs Hatched % C* (% hatch, normalized to control) ([2]; 5 ppm, 120 hr): 77%
Eggs Hatched No. ([2]; 5 ppm, 120 hr): 129
Eggs Hatched % ([2]; 5 ppm, 168 hr): 21%
Eggs Hatched % C* (% hatch, normalized to control) ([2]; 5 ppm, 168 hr): 75%
Eggs Hatched No. ([2]; 5 ppm, 168 hr): 159
Eggs Hatched % ([2]; 10 ppm, 24 hr): 9%
Eggs Hatched % C* (% hatch, normalized to control) ([2]; 10 ppm, 24 hr): 90%
Eggs Hatched No. ([2]; 10 ppm, 24 hr): 60
Eggs Hatched % ([2]; 10 ppm, 72 hr): 13%
Eggs Hatched % C* (% hatch, normalized to control) ([2]; 10 ppm, 72 hr): 81%
Eggs Hatched No. ([2]; 10 ppm, 72 hr): 83
Eggs Hatched % ([2]; 10 ppm, 120 hr): 15%
Eggs Hatched % C* (% hatch, normalized to control) ([2]; 10 ppm, 120 hr): 68%
Eggs Hatched No. ([2]; 10 ppm, 120 hr): 103
Eggs Hatched % ([2]; 10 ppm, 168 hr): 18%
Eggs Hatched % C* (% hatch, normalized to control) ([2]; 10 ppm, 168 hr): 64%
Eggs Hatched No. ([2]; 10 ppm, 168 hr): 136
Eggs Hatched % ([2]; 20 ppm, 24 hr): 8%
Eggs Hatched % C* (% hatch, normalized to control) ([2]; 20 ppm, 24 hr): 80%
Eggs Hatched No. ([2]; 20 ppm, 24 hr): 51
Eggs Hatched % ([2]; 20 ppm, 72 hr): 11%
Eggs Hatched % C* (% hatch, normalized to control) ([2]; 20 ppm, 72 hr): 69%
Eggs Hatched No. ([2]; 20 ppm, 72 hr): 64
Eggs Hatched % ([2]; 20 ppm, 120 hr): 12%
Eggs Hatched % C* (% hatch, normalized to control) ([2]; 20 ppm, 120 hr): 55%
Eggs Hatched No. ([2]; 20 ppm, 120 hr): 79
Eggs Hatched % ([2]; 20 ppm, 168 hr): 15%
Eggs Hatched % C* (% hatch, normalized to control) ([2]; 20 ppm, 168 hr): 54%
Eggs Hatched No. ([2]; 20 ppm, 168 hr): 99
Eggs Hatched % ([2]; 40 ppm, 24 hr): 7%
Eggs Hatched % C* (% hatch, normalized to control) ([2]; 40 ppm, 24 hr): 70%
Eggs Hatched No. ([2]; 40 ppm, 24 hr): 48
Eggs Hatched % ([2]; 40 ppm, 72 hr): 10%
Eggs Hatched % C* (% hatch, normalized to control) ([2]; 40 ppm, 72 hr): 62%
Eggs Hatched No. ([2]; 40 ppm, 72 hr): 55
Eggs Hatched % ([2]; 40 ppm, 120 hr): 10%
Eggs Hatched % C* (% hatch, normalized to control) ([2]; 40 ppm, 120 hr): 45%
Eggs Hatched No. ([2]; 40 ppm, 120 hr): 63
Eggs Hatched % ([2]; 40 ppm, 168 hr): 11%
Eggs Hatched % C* (% hatch, normalized to control) ([2]; 40 ppm, 168 hr): 39%
Eggs Hatched No. ([2]; 40 ppm, 168 hr): 75
